Laboratory results published in PMC6120877, “Intriguing role of water in protein-ligand binding studied by neutron crystallography on trypsin complexes” (Nature Communications, 2018).

Tests used:
bovine trypsin = biological target: T1, bovine trypsin (Bos taurus, UniProt P00760); experiment: Kinetic fluorescence enzyme inhibition assay, trypsin; assay type: biochemical; conditions: for Ki: fluorescence assay, D-Phe-Pro derivatives
T1 construct: purchased Worthington Biochemical Corporation LS003707
T1 sequence (P00760 24-246): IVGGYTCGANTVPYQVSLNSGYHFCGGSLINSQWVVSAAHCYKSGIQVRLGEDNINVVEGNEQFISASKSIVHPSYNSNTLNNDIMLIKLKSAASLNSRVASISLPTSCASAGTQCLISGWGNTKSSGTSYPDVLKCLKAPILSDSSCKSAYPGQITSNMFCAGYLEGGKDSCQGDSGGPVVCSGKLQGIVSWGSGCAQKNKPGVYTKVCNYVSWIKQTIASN
Description: Following the same approach as used in an earlier study, kinetic data were obtained in black 96-well plates using a Fluoroskan Ascent fluorometer (Thermo Fisher Scientific, Vantaa/Finland; λex = 355 nm, λem = 460 nm). The assay was performed at room temperature in a buffer composed of 43 mM Tris pH 7.8, 132 mM NaCl and 0.0086 % (w/v) PEG 8000. The final trypsin concentration was 65 pM. […] The D-Phe-Pro analogs were dissolved in DMSO and further diluted in buffer to yield a final DMSO concentration in the assay well below 1% (v/v). Mes-d-Arg-Gly-Arg-AMC (Mes = mesyl; AMC = […]) available from a previous study was used as the substrate. […] The uninhibited trypsin-catalyzed reaction was investigated in parallel at the three substrate concentrations 6.3, 12.5, and 25 µM. […] For this purpose, a non-linear fit to the Michaelis-Menten equation modified for reversible competitive inhibitors was used.

human thrombin = biological target: T2, human thrombin (Homo sapiens, UniProt P00734); experiment: Kinetic fluorescence enzyme inhibition assay, thrombin; assay type: biochemical; conditions: D-Phe-Pro derivatives
T2 construct: The analogous assay was applied to human thrombin, which was kindly provided by CSL Behring; purchased CSL Behring

bovine β-trypsin [1] = biological target: T3, bovine β-trypsin (Bos taurus, UniProt P00760); experiment: Direct ITC titration, trypsin; assay type: binding; conditions: for number of protons transferred from the buffer onto trypsin upon complex formation (slope of interpolation function): ∆H° vs. buffer ionization enthalpy, three buffers
T3 construct: dialyzing a solution of bovine β-trypsin (Sigma Aldrich, product number T8003); purchased Sigma Aldrich T8003
T3 sequence (P00760 24-246): T1 sequence (P00760 24-246)
Description: To determine dissociation constants for trypsin:inhibitor complexes, two different isothermal titration calorimetry (ITC) titration protocols were used. […] Protein samples were prepared by dialyzing a solution of bovine β-trypsin (Sigma Aldrich, product number T8003) against a buffer composed of 80 mM NaCl, 10 mM CaCl2, 0.1 % (w/v) PEG 8000 and 100 mM HEPES, Tricine or Tris at a pH of 7.6 and a temperature of 4 °C while ligands were dissolved in buffer. […] Titrations were performed in three different buffer systems to enable the correction for any proton transfer occurring between buffer and protein upon complex formation. For this purpose, the obtained ∆H° values were plotted against the ionization enthalpy of the used buffer yielding a buffer-corrected enthalpy as the intercept (for more details see footnote b in Supplementary Tables 2 and 3). […] Applying the same protocol and data analysis scheme as used in an earlier study, ITC titrations were performed on an ITC200 device (GE Healthcare) at 25 °C with a reference power of 5 µcal s^−1. The ITC protocol consisted of an initial 0.3 µl volume injection and of 20–25 injections with a volume between 1.5 and 1.8 µl separated by a 220 s time interval. For data analysis, the method described by Turnbull et al. was applied.

bovine β-trypsin [2] = biological target: T3, bovine β-trypsin; experiment: Displacement ITC titration, trypsin (displacement ligand compound 2); assay type: binding; conditions: HEPES
Description: Sample preparations, measurements and data analyses were performed using the same approach as for our earlier study, which is described in the following. […] ITC data were collected using an ITC200 device (GE Healthcare) at 25 °C with a reference power of 5 µcal s^−1. An initial 0.3 µl volume injection was followed by 19 injections with a volume of 1.9 µl.

[3] = buffer-corrected (average over three buffers), 3% (v/v) DMSO
[4] = buffer-corrected (difference between ∆G° and ∆H°), 3% (v/v) DMSO
[5] = buffer-corrected (intercept at ionization enthalpy 0), 3% (v/v) DMSO
[6] = direct titration, HEPES, 3% (v/v) DMSO
[7] = direct titration, Tricine, 3% (v/v) DMSO
[8] = direct titration, Tris, 3% (v/v) DMSO

Structure (SMILES)	Ki (bovine trypsin) [nM]	Kd (bovine β-trypsin [1]; [3]) [nM]	∆G° (bovine β-trypsin [1]; [3]) [kcal/mol]	–T∆S° (bovine β-trypsin [1]; [4]) [kcal/mol]	∆H° (bovine β-trypsin [1]; [5]) [kcal/mol]	Kd (bovine β-trypsin [1]; [6]) [nM]	–T∆S° (bovine β-trypsin [1]; [6]) [kcal/mol]	∆G° (bovine β-trypsin [1]; [6]) [kcal/mol]	∆H° (bovine β-trypsin [1]; [6]) [kcal/mol]	Kd (bovine β-trypsin [1]; [7]) [nM]	–T∆S° (bovine β-trypsin [1]; [7]) [kcal/mol]	∆G° (bovine β-trypsin [1]; [7]) [kcal/mol]	∆H° (bovine β-trypsin [1]; [7]) [kcal/mol]	Kd (bovine β-trypsin [1]; [8]) [nM]	–T∆S° (bovine β-trypsin [1]; [8]) [kcal/mol]	∆G° (bovine β-trypsin [1]; [8]) [kcal/mol]	∆H° (bovine β-trypsin [1]; [8]) [kcal/mol]	number of protons transferred from the buffer onto trypsin upon complex formation (slope of interpolation function) (bovine β-trypsin [1]; 3% (v/v) DMSO)	also measured
N=C(N)N1CCC(CNC(=O)[C@@H]2CCCN2C(=O)[C@H](N)Cc2ccccc2)CC1.O=C(O)C(F)(F)F.O=C(O)C(F)(F)F [Compound 1]	1960 ± 264	3600	-7.43	-2.22	-5.21	3700 ± 200	-2.77 ± 0.072	-7.41 ± 0.048	-4.64 ± 0.072	3300 ± 300	-3.15 ± 0.12	-7.48 ± 0.048	-4.33 ± 0.12	3700 ± 600	-3.51 ± 0.17	-7.41 ± 0.096	-3.9 ± 0.14	0.12	Ki (human thrombin): 4.51 ± 0.25 nM
N=C(N)c1ccccc1 [Benzamidine, benzamidine]	–	–	–	–	–	–	–	–	–	–	–	–	–	–	–	–	–	–	stronger inhibition of trypsin than N-amidinopiperidine (bovine trypsin; benzamidine vs. N-amidinopiperidine): about 10 fold; –T∆S° (bovine β-trypsin [1]; direct titration, HEPES): -3.59 ± 0.072 kcal/mol; ∆G° (bovine β-trypsin [1]; direct titration, HEPES): -6.38 ± 0.072 kcal/mol; ∆H° (bovine β-trypsin [1]; direct titration, HEPES): -2.8 ± 0.024 kcal/mol; –T∆S° (bovine β-trypsin [1]; direct titration, Tricine): -2.53 ± 0.14 kcal/mol; ∆G° (bovine β-trypsin [1]; direct titration, Tricine): -6.33 ± 0.0096 kcal/mol; ∆H° (bovine β-trypsin [1]; direct titration, Tricine): -3.8 ± 0.14 kcal/mol; –T∆S° (bovine β-trypsin [1]; direct titration, Tris): -1.58 ± 0.096 kcal/mol; ∆G° (bovine β-trypsin [1]; direct titration, Tris): -6.33 ± 0.0072 kcal/mol; ∆H° (bovine β-trypsin [1]; direct titration, Tris): -4.76 ± 0.096 kcal/mol; ∆G° (bovine β-trypsin [1]; direct titration, buffer-corrected (average over three buffers)): -6.36 kcal/mol; –T∆S° (bovine β-trypsin [1]; direct titration, buffer-corrected (difference between ∆G° and ∆H°)): -5.02 kcal/mol; ∆H° (bovine β-trypsin [1]; direct titration, buffer-corrected (intercept at ionization enthalpy 0)): -1.34 kcal/mol; number of protons transferred from the buffer onto trypsin upon complex formation (slope of interpolation function) (bovine β-trypsin [1]): -0.31; –T∆S° (bovine β-trypsin [2]): -2.44 ± 0.22 kcal/mol; ∆G° (bovine β-trypsin [2]): -6.31 ± 0.14 kcal/mol; ∆H° (bovine β-trypsin [2]): -3.85 ± 0.17 kcal/mol
N=C(N)c1ccc(CNC(=O)[C@@H]2CCCN2C(=O)[C@H](N)Cc2ccccc2)cc1 [Compound 2]	15.2 ± 0.2	34	-10.2	-1.05	-9.13	38 ± 7	-1.65 ± 0.19	-10.1 ± 0.096	-8.48 ± 0.17	34 ± 3	-2.63 ± 0.096	-10.2 ± 0.048	-7.55 ± 0.096	31 ± 5	-2.87 ± 0.14	-10.2 ± 0.096	-7.39 ± 0.096	0.17	–
